How the values were obtained:
[1] = test system: Littleseed canarygrass (PHAMI); test: post-emergence test, weed control; assay type: in vivo, Phalaris minor; conditions: post-emergent, 28 DAT, height 7-8 cm, rate g ai/ha by row: r25 94, r26 125, r27 188, r28 125, r29 250, r30 94+125, r31 125+125, r32 188+125, r33 94+250, r34 125+250, r35 188+250
Experimental: (§1) Test compositions containing the test compounds were diluted with water to provide the appropriate test rate concentrations.
(§2) For post-emergence testing, seeds of each species for each rate of application of each herbicide solution were planted in 7.5 cm×7.5 cm plastic pots filled with potting soil. The seeds were germinated and the resulting plants were allowed to grow in a greenhouse until they reached a growth stage, such as height, suitable for testing. Treatments were applied using compressed air in a track spray chamber at 30 gallons/acre (280 L/ha) using a TeeJet 8001E nozzle at 40 psi (2.76 bars). Pots of post-emergent treated plants were returned to the greenhouse and not watered for 24 hours after treatment. Thereafter they were regularly watered and fertilized for the duration of the test.
(§3) The control of weeds was evaluated in each experimental test at 21 for wheat and 28 days after treatment (DAT) for all species. Data were analyzed using Minitab software at 95% confidence interval. The results, shown as an average of the replications, were compared with results observed in untreated control flats in the same tests. Percent control was determined by a method similar to the 0 to 100 rating system disclosed in “Research Methods in Weed Science,” 2nd ed., B. Truelove, Ed.; Southern Weed Science Society; Auburn University, Auburn, Ala., 1977. The rating system is as follows in Table 1.

Annual bluegrass (POAAN) = test: post-emergence test, weed control; assay type: in vivo, Poa annua; conditions: post-emergent, 28 DAT, height 1-2 cm, rate g ai/ha by row: r7 94, r8 125, r9 188, r10 125, r11 250, r12 94+125, r13 125+125, r14 188+125, r15 94+250, r16 125+250, r17 188+250
Experimental: as §1, §2, §3

Green foxtail (SETVI) = test: post-emergence test, weed control; assay type: in vivo, Setaria viridis; conditions: post-emergent, 28 DAT, BFL at 187.5 g, combination of both
Experimental: as §1, §2, §3

Cheat grass (BROSE) = test: post-emergence test, weed control; assay type: in vivo; conditions: post-emergent, 28 DAT, height 7 cm, rate g ai/ha by row: r7 94, r8 125, r9 188, r10 125, r11 250, r12 94+125, r13 125+125, r14 188+125, r15 94+250, r16 125+250, r17 188+250
Experimental: as §1, §2, §3

Shattercane (SOBIA) = test: post-emergence test, weed control; assay type: in vivo; conditions: post-emergent, 28 DAT, height 8 cm; rate g ai/ha by row: r25 94, r26 125, r27 188, r28 125, r29 250, r30 94+125, r31 125+125, r32 188+125, r33 94+250, r34 125+250, r35 188+250
Experimental: as §1, §2, §3

Redrice (ORYSA) = test: post-emergence test, weed control; assay type: in vivo; conditions: post-emergent, 28 DAT; for percentage of weed control, ORYSA: height 8 cm, rate g ai/ha by row: r25 94, r26 125, r27 188, r28 125, r29 250, r30 94+125, r31 125+125, r32 188+125, r33 94+250, r34 125+250, r35 188+250
Experimental: as §1, §2, §3

Rice flatsedge (CYPIR) = test: post-emergence test, weed control; assay type: in vivo; conditions: post-emergent, 28 DAT, height 1-2 cm, rate g ai/ha by row: r25 94, r26 125, r27 188, r28 125, r29 250, r30 94+125, r31 125+125, r32 188+125, r33 94+250, r34 125+250, r35 188+250
Experimental: as §1, §2, §3

Large crabgrass (DIGSA) = test: post-emergence test, weed control; assay type: in vivo; conditions: post-emergent, 28 DAT; BFL at 188 g/ha, DCI at 125 g/ha, combination of both
Experimental: as §1, §2, §3

Common ragweed (AMBEL) = test: post-emergence test, weed control; assay type: in vivo; conditions: post-emergent, 28 DAT, height 3-4 cm, rate g ai/ha by row: r7 94, r8 125, r9 188, r10 125, r11 250, r12 94+125, r13 125+125, r14 188+125, r15 94+250, r16 125+250, r17 188+250
Experimental: as §1, §2, §3

Wild oat (AVEFA) = test: post-emergence test, weed control; assay type: in vivo, Avena fatua; conditions: post-emergent, 28 DAT; for percentage of weed control, AVEFA: height 11 cm, rate g ai/ha by row: r25 94, r26 125, r27 188, r28 125, r29 250, r30 94+125, r31 125+125, r32 188+125, r33 94+250, r34 125+250, r35 188+250; for control of wild oats (AVEFA): DCI at 250 g/ha
Experimental: as §1, §2, §3

Palmer amaranth (AMAPA) = test: pre-emergence test, weed control; assay type: in vivo, Amaranthus palmeri; conditions: pre-emergent, 28 DAT; BFL at 125 g/ha, DCI at 125 g/ha, combination of both
Experimental: as §1
For pre-emergence testing, four disposable fiber flats (6 inch by 10 inch) for each rate of application of each herbicide solution were filled with top soil, to which seeds of each species were planted in furrows made by a template pressed on the top of the soil. The furrows were covered with soil after planting the seed and were watered well before application of the test compounds.
Fiber flats designated for treatment were placed in a spray chamber having a static platform and a movable sprayer and the height of the spray nozzle was 10.5 inches above the soil level. Once the sprayer was calibrated using water for spray volume of 30 gallons per acre, flats were sprayed with sprayer at a speed to receive a coverage equivalent of 30 gallons per acre. The application rates are those shown in the Tables below for the individual herbicidal solutions and the herbicide compositions of this invention. The pre-emergence flats were immediately placed in the greenhouse and watered lightly after treatment. Thereafter they were regularly watered and fertilized for the duration of the test.
as §3

[2] = BFL at 187.5 g, PYX at 90 g, combination of both

## CCC(Oc1ccc(F)c(C(F)(F)F)c1)C(=O)NCc1ccccc1 (racemic) [BFL, 2-[4-fluoro-3-(trifluoromethyl)phenoxy]-N-(phenylmethyl)butanamide]
[1]; 94 g ai/ha
  percentage of weed control, PHAMI: 0%
[1]; 188 g ai/ha
  percentage of weed control, PHAMI: 1%
Annual bluegrass (POAAN); 94 g ai/ha
  percentage of weed control, POAAN: 0%
Annual bluegrass (POAAN); 188 g ai/ha
  percentage of weed control, POAAN: 2%
Green foxtail (SETVI); PTX at 890 g
  control of green foxtail: 54%
Green foxtail (SETVI); PYX at 90 g
  control of green foxtail: 54%
Cheat grass (BROSE); 94 g ai/ha
  percentage of weed control, BROSE: 0%
Cheat grass (BROSE); 188 g ai/ha
  percentage of weed control, BROSE: 6%
Shattercane (SOBIA)
  percentage of weed control, SOBIA: 0%
Redrice (ORYSA); 94 g ai/ha
  percentage of weed control, ORYSA: 46%
Redrice (ORYSA); 125 g ai/ha
  percentage of weed control, ORYSA: 44%
Redrice (ORYSA); 188 g ai/ha
  percentage of weed control, ORYSA: 28%
Redrice (ORYSA); [2]
  control of red rice: 69%
Rice flatsedge (CYPIR); 94 g ai/ha
  percentage of weed control, CYPIR: 0%
Rice flatsedge (CYPIR); 188 g ai/ha
  percentage of weed control, CYPIR: 4%
Large crabgrass (DIGSA)
  control of large crabgrass (DIGSA): 19%
Common ragweed (AMBEL); 94 g ai/ha
  percentage of weed control, AMBEL: 5%
Common ragweed (AMBEL); 125 g ai/ha
  percentage of weed control, AMBEL: 6%
Common ragweed (AMBEL); 188 g ai/ha
  percentage of weed control, AMBEL: 12%
Wild oat (AVEFA); 94 g ai/ha
  percentage of weed control, AVEFA: 0%
Wild oat (AVEFA); 188 g ai/ha
  percentage of weed control, AVEFA: 5%
Wild oat (AVEFA); BFL at 125 g/ha, combination of both
  control of wild oats (AVEFA): 0%
Wild oat (AVEFA); [2]
  control of wild oats: 15%
Wild oat (AVEFA); BFL at 188 g/ha, combination of both
  control of wild oats (AVEFA): 5%
Palmer amaranth (AMAPA)
  control of Palmer amaranth (AMAPA): 69%

Reference: patent US11412737B2, “Mixtures of beflubutamid or optically enriched forms thereof with a second herbicide” (FMC Corporation, priority 2016, dated 2022)
